What follows are compounds tested against T1, human IL-17A (Homo sapiens, UniProt Q16552) (assay: IL-17A AlphaLISA competition assay (block of IL-17A binding to its receptor IL-17RA)). Settings: mean IC50 (n≥2), block of IL-17A binding to IL-17RA.
T1 construct: purchased R&D Systems 7955-IL/CF
T1 sequence (Q16552 24-155): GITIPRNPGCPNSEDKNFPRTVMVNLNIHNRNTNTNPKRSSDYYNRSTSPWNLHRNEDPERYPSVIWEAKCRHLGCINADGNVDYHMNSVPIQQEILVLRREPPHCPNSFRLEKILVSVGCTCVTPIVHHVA
How it was run: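 Bead-based AlphaLISA competition in PBS with 0.05% Tween-20 and 0.1% BSA: compound first meets human IL-17A (7.5 nM stock) for 30 min, then IL-17RA/Fc (5 nM stock) for 90 min, all at room temperature, before acceptor/donor bead capture. IC50 fitted 4-parameter, DMSO and 4 μM reference inhibitor as controls; at least duplicate.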

Row | Structure (SMILES) | IC50 [µM]
1 | C[C@H]1CC[C@H]([C@H](NC(=O)NCc2ccccc2)C(=O)Nc2cc(CN3C[C@@H](C(F)(F)F)NC3=O)ccn2)CC1 [Example 97, (S)-2-(3-Benzylureido)-2-((1r,4S)-4-methylcyclohexyl)-N-(4-(((S)-2-oxo-4-(trifluoromethyl)imidazolidin-1-yl)methyl)pyridin-2-yl)acetamide] | 2.08
2 | O=C(NCc1ccccc1)N[C@H](C(=O)Nc1cc(CN2C[C@@H](C(F)(F)F)NC2=O)ccn1)C1CCC(F)(F)CC1 [Example 99, (S)-2-(3-Benzylureido)-2-(4,4-difluorocyclohexyl)-N-(4-(((S)-2-oxo-4-(trifluoromethyl)imidazolidin-1-yl)methyl)pyridin-2-yl)acetamide] | 6.79
3 | C[C@@H](OC(C)(C)C)[C@@H](NC(=O)OCc1ccccc1)C(=O)Nc1cc(CN2C[C@@H](C(F)(F)F)NC2=O)ccn1 [Example 100, Benzyl ((2R,3R)-3-(tert-butoxy)-1-oxo-1-((4-(((S)-2-oxo-4-(trifluoromethyl)imidazolidin-1-yl)methyl)pyridin-2-yl)amino)butan-2-yl)carbamate] | 17.4
4 | C[C@@H](OC(C)(C)C)[C@H](NC(=O)OCc1ccccc1)C(=O)Nc1cc(CN2C[C@@H](C(F)(F)F)NC2=O)ccn1 [Example 101, benzyl ((2S,3R)-3-(tert-butoxy)-1-oxo-1-((4-(((S)-2-oxo-4-(trifluoromethyl)imidazolidin-1-yl)methyl)pyridin-2-yl)amino)butan-2-yl)carbamate] | 5.39
5 | C[C@@H](OC(C)(C)C)[C@H](NC(=O)c1nonc1C1CC1)C(=O)Nc1cc(CN2C[C@@H](C(F)(F)F)NC2=O)ccn1 [Example 102, N-((2S,3R)-3-(tert-butoxy)-1-oxo-1-((4-(((S)-2-oxo-4-(trifluoromethyl)-imidazolidin-1-yl)methyl)pyridin-2-yl)amino)butan-2-yl)-4-cyclopropyl-1,2,5-oxadiazole-3-carboxamide] | 0.356
6 | C[C@@H](OC(C)(C)C)[C@H](NC(=O)c1ccnn1C)C(=O)Nc1cc(CN2C[C@@H](C(F)(F)F)NC2=O)ccn1 [Example 103, N-((2S,3R)-3-(tert-butoxy)-1-oxo-1-((4-(((S)-2-oxo-4-(trifluoromethyl)-imidazolidin-1-yl)methyl)pyridin-2-yl)amino)butan-2-yl)-1-methyl-1H-pyrazole-5-carboxamide] | 1.74
7 | O=C(CCC(F)(F)F)NC(c1ccnc(NC(=O)[C@@H](NC(=O)c2ncco2)C2CCC(F)(F)CC2)c1)C1CC1 (stereo partly drawn) [Example 105, N-((1S)-2-((4-(cyclopropyl(4,4,4-trifluorobutanamido)methyl)pyridin-2-yl)amino)-1-(4,4-difluorocyclohexyl)-2-oxoethyl)oxazole-2-carboxamide] | 3.34
8 | O=C(CCC(F)(F)F)NC(c1ccnc(NC(=O)[C@@H](NC(=O)c2cocn2)C2CCC(F)(F)CC2)c1)C1CC1 (stereo partly drawn) [Example 109, N-((1S)-2-((4-(cyclopropyl(4,4,4-trifluorobutanamido)methyl)pyridin-2-yl)amino)-1-(4,4-difluorocyclohexyl)-2-oxoethyl)oxazole-4-carboxamide] | 7.8
9 | Cn1ccnc1C(=O)N[C@H](C(=O)Nc1cc(C(NC(=O)CCC(F)(F)F)C2CC2)ccn1)C1CCC(F)(F)CC1 (stereo partly drawn) [Example 111, N-((1S)-2-((4-(cyclopropyl(4,4,4-trifluorobutanamido)methyl)pyridin-2-yl)amino)-1-(4,4-difluorocyclohexyl)-2-oxoethyl)-1-methyl-1H-imidazole-2-carboxamide] | 6.17
10 | C[C@H](OC(C)(C)C)[C@H](NC(=O)c1nonc1C1CC1)C(=O)Nc1cc(CN2C[C@@H](C(F)(F)F)NC2=O)ccn1 [Example 116, N-((2S,3S)-3-(tert-butoxy)-1-oxo-1-((4-(((S)-2-oxo-4-(trifluoromethyl)-imidazolidin-1-yl)methyl)pyridin-2-yl)amino)butan-2-yl)-4-cyclopropyl-1,2,5-oxadiazole-3-carboxamide] | 15.4

Continued, values first:

Row | IC50 [µM] | Structure (SMILES)
11 | 1.96 | COCC(c1ccnc(NC(=O)[C@@H](NC(=O)c2ncccc2C)[C@H]2CC[C@H](C)CC2)c1)N1C[C@@H](C(F)(F)F)NC1=O (stereo partly drawn) [Example 98, N-((1S)-2-((4-(2-Methoxy-1-((S)-2-oxo-4-(trifluoromethyl)imidazolidin-1-yl)ethyl)pyridin-2-yl)amino)-1-((1r,4S)-4-methylcyclohexyl)-2-oxoethyl)-3-methyl-picolinamide]
12 | 0.938 | CC(C)(C)OC(=O)N[C@H](C(=O)Nc1cc(CN2C[C@@H](C(F)(F)F)NC2=O)ccn1)C(C1CC1)C1CC1 [Example 104, Tert-butyl ((S)-1,1-dicyclopropyl-3-oxo-3-((4-(((S)-2-oxo-4-(trifluoro-methyl)imidazolidin-1-yl)methyl)pyridin-2-yl)amino)propan-2-yl)carbamate]
13 | 0.031 | CC(C)n1nccc1C(=O)N[C@H](C(=O)Nc1cc(C(NC(=O)CCC(F)(F)F)C2CC2)ccn1)[C@H]1CC[C@H](C)CC1 (stereo partly drawn) [Example 106, N-((1S)-2-((4-(cyclopropyl(4,4,4-trifluorobutanamido)methyl)pyridin-2-yl)amino)-1-((1r,4S)-4-methylcyclohexyl)-2-oxoethyl)-1-isopropyl-1H-pyrazole-5-carboxamide]
14 | 0.177 | Cn1nccc1C(=O)N[C@H](C(=O)Nc1cc([C@H](NC(=O)CCC(F)(F)F)C2CC2)ccn1)C1CCC(F)(F)CC1 [Example 107, N—((S)-2-((4-((R)-cyclopropyl(4,4,4-trifluorobutanamido)methyl)pyridin-2-yl)amino)-1-(4,4-difluorocyclohexyl)-2-oxoethyl)-1-methyl-1H-pyrazole-5-carboxamide]
15 | 0.033 | CCn1nccc1C(=O)N[C@H](C(=O)Nc1cc(C(NC(=O)CCC(F)(F)F)C2CC2)ccn1)C1CCC(F)(F)CC1 (stereo partly drawn) [Example 108, N-((1S)-2-((4-(cyclopropyl(4,4,4-trifluorobutanamido)methyl)pyridin-2-yl)amino)-1-(4,4-difluorocyclohexyl)-2-oxoethyl)-1-ethyl-1H-pyrazole-5-carboxamide]
16 | 0.03 | CC(C)n1nccc1C(=O)N[C@H](C(=O)Nc1cc(C(NC(=O)CCC(F)(F)F)C2CC2)ccn1)C1CCC(F)(F)CC1 (stereo partly drawn) [Example 110, N-((1S)-2-((4-(cyclopropyl(4,4,4-trifluorobutanamido)methyl)pyridin-2-yl)amino)-1-(4,4-difluorocyclohexyl)-2-oxoethyl)-1-isopropyl-1H-pyrazole-5-carboxamide]
17 | 1 | COCC(c1ccnc(NC(=O)C(NC(=O)Cc2c(C)noc2C)C2CCC(C)CC2)c1)N1CC(C(F)(F)F)NC1=O [Example 113, (2S)-2-(2-(3,5-dimethyl-isoxazol-4-yl)acetamido)-N-(4-(2-methoxy-1-((S)-2-oxo-4-(trifluoromethyl)-imidazolidin-1-yl)ethyl)-pyridin-2-yl)-2-((1r,4S)-4-methylcyclohexyl)-acetamide]
18 | 0.723 | CC(C)n1ccnc1C(=O)N[C@H](C(=O)Nc1cc(C(NC(=O)CCC(F)(F)F)C2CC2)ccn1)C1CCC(F)(F)CC1 (stereo partly drawn) [Example 117, N-((1S)-2-((4-(cyclopropyl(4,4,4-trifluorobutanamido)methyl)pyridin-2-yl)amino)-1-(4,4-difluorocyclohexyl)-2-oxoethyl)-1-isopropyl-1H-imidazole-2-carboxamide]
